This assay addresses T1, human PPARalpha (Homo sapiens, UniProt Q07869).
T1 construct: human PPARalpha receptor (amino acids S167-Y468); expressed in transfected cells; host or cells: HEK cells (human embryo kidney), stably transfected with a pcDNA3-based plasmid
T1 sequence (Q07869 167-468): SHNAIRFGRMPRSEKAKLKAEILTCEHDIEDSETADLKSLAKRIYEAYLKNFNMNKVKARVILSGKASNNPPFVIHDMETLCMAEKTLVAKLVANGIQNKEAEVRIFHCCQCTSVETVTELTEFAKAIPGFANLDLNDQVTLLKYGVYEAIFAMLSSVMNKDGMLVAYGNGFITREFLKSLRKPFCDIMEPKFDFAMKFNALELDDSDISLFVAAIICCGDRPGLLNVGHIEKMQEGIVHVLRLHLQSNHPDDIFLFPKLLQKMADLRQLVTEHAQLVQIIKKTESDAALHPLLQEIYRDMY
The experiment in a line: Cellular PPARalpha assay (stably transfected HEK PPARalpha reporter cell line, luciferase). Type of assay: cell-based. The note with it: GR-GAL4-humanPPARalpha-LBD, luciferase readout. On the procedure: Determination of EC50 Values of PPAR Agonists in the Cellular PPARalpha Assay
The potency of substances which bind to human PPARalpha and activate in an agonistic manner is analyzed using a stably transfected HEK cell line (HEK=human embryo kidney) which is referred to here as PPARalpha reporter cell line. It contains two genetic elements, a luciferase reporter element (pdeltaM-GAL4-Luc-Zeo) and a PPARalpha fusion protein (GR-GAL4-humanPPARalpha-LBD) which mediates expression of the luciferase reporter element depending on a PPARalpha ligand. The stably and constitutively expressed fusion protein GR-GAL4-humanPPARalpha-LBD binds in the cell nucleus of the PPARalpha reporter cell line via the GAL4 protein portion to the GAL4 DNA binding motifs 5′-upstream of the luciferase reporter element which is integrated in the genome of the cell line. There is only little expression of the luciferase reporter gene without addition of a PPARalpha ligand if fatty acid-depleted fetal calf serum (cs-FCS) is used in the assay. PPARalpha ligands bind and activate the PPARalpha fusion protein and thereby bring about expression of the luciferase reporter gene. The luciferase which is formed can be detected by means of chemiluminescence via an appropriate substrate.
The PPARalpha reporter cell line was prepared in 2 stages. Firstly, the luciferase reporter element was constructed and stably transfected into HEK cells. For this purpose, five binding sites of the yeast transcription factor GAL4 (each 5′-CGGAGTACTGTCCTCCGAG-3′) (SEQ ID No. 1) were cloned in 5′-upstream of a 68 bp-long minimal MMTV promoter (Genbank Accession # V01175). The minimal MMTV promoter section contains a CCAAT box and a TATA element in order to enable efficient transcription by RNA polymerase II. The cloning and sequencing of the GAL4-MMTV construct took place in analogy to the description of Sambrook J. et. al. (Molecular cloning, Cold Spring Harbor Laboratory Press, 1989). Then the complete Photinus pyralis gene (Genbank Accession # M15077) was cloned in 3′-downstream of the GAL4-MMTV element. After sequencing, the luceriferase reporter element consisting of five GAL4 binding sites, MMTV promoter and luciferase gene was recloned into a plasmid which confers zeocin resistance in order to obtain the plasmid pdeltaM-GAL4-Luc-Zeo. This vector was transfected into HEK cells in accordance with the statements in Ausubel, F. M. et al. (Current protocols in molecular biology, Vol. 1-3, John Wiley & Sons, Inc., 1995).
In a second step, the PPARalpha fusion protein (GR-GAL4-humanPPARalpha-LBD) was introduced into the stable cell clone described. For this purpose, initially the cDNA coding for the N-terminal 76 amino acids of the glucocorticoid receptor (Genbank Accession # P04150) was linked to the cDNA section coding for amino acids 1-147 of the yeast transcription factor GAL4 (Genbank Accession # P04386). The cDNA of the ligand-binding domain of the human PPARalpha receptor (amino acids S167-Y468; Genbank Accession # S74349) was cloned in at the 3′-end of this GR-GAL4 construct. The fusion construct prepared in this way (GR-GAL4-humanPPARalpha-LBD) was recloned into the plasmid pcDNA3 (from Invitrogen) in order to enable constitutive expression therein by the cytomegalovirus promoter. This plasmid was linearized with a restriction endonuclease and stably transfected into the previously described cell clone containing the luciferase reporter element. The finished PPARalpha reporter cell line which contains a luciferase reporter element and constitutively expresses the PPARalpha fusion protein (GR-GAL4-human PPARalpha-LBD) was isolated by selection with zeocin (0.5 mg/ml) and G418 (0.5 mg/ml).
The activity of PPARalpha agonists is determined in a 3-day assay which is described below: […]
With `Cc1cccc(-c2nc(CO[C@H]3CCC[C@@H](OCCCNS(=O)(=O)C(F)(F)F)C3)c(C)o2)c1` [Example II, (1R,3S)—C,C,C-Trifluoro-N-{3-[3-(5-methyl-2-m-tolyloxazol-4-ylmethoxy)cyclohexyloxy]propyl}methanesulfonamide], it took 331 nM to reach a half-maximal effect (EC50).

`COc1ccc2cc(C(=O)O)n(CCO[C@@H]3CCC[C@H](OCc4nc(-c5cccc(C)c5)oc4C)C3)c2c1` [Example XI, (1R,3S)-6-Methoxy-1-{2-[3-(5-methyl-2-m-tolyloxazol-4-ylmethoxy)cyclohexyloxy]ethyl}-1H-indole-2-carboxylic acid] had an EC50 of 361 nM.

`Cc1cccc(-c2nc(CO[C@H]3CCC[C@@H](OCCOc4cc(C(F)(F)F)sc4C(=O)O)C3)c(C)o2)c1` [Example XXIII, (1R,3S)-3-{2-[3-(5-Methyl-2-m-tolyloxazol-4-ylmethoxy)cyclohexyloxy]ethoxy}-5-trifluoromethylthiophene-2-carboxylic acid]: the EC50 amounted to 222 nM.

In turn, `Cc1cccc(-c2nc(CO[C@H]3CCC[C@@H](OCCOc4cccc(C)c4[N+](=O)[O-])C3)c(C)o2)c1` [Example XXI, (1S,3R)-5-Methyl-4-{3-[2-(3-methyl-2-nitrophenoxy)ethoxy]cyclohexyloxymethyl}-2-m-tolyloxazole] yielded a concentration giving a half-maximal response (EC50) of 530 nM.

As for `Cc1cccc(-c2nc(CO[C@H]3CCC[C@@H](OCCOc4ccccc4C(=O)O)C3)c(C)o2)c1` [Example XV, (1R,3S)-2-{2-[3-(5-Methyl-2-m-tolyloxazol-4-ylmethoxy)cyclohexyloxy]-ethoxy}benzoic acid], the EC50 was 519 nM.

With `Cc1cccc(-c2nc(CO[C@H]3CCC[C@@H](OCCOc4cccc(C)c4C(=O)O)C3)c(C)o2)c1` [Example XIV, (1R,3S)-2-Methyl-6-{2-[3-(5-methyl-2-m-tolyloxazol-4-ylmethoxy)cyclohexyloxy]ethoxy}benzoic acid], the EC50 was 106 nM.

`Cc1ccc(-c2nc(CO[C@@H]3CCC[C@H](Cn4c(C(=O)O)cc5ccccc54)C3)c(C)o2)cc1` (racemic) [Example XXVI, 1-[(1S,3R)/(1R,3S)-3-(5-Methyl-2-p-tolyloxazol-4-ylmethoxy)cyclohexylmethyl]-1H-indole-2-carboxylic acid] came in with an EC50 of 24 nM.

Consider `CCc1ccc2c(c1)cc(C(=O)O)n2CCO[C@@H]1CCC[C@H](OCc2nc(-c3cccc(C)c3)oc2C)C1` [Example VII, (1R,3S)-5-Ethyl-1-{2-[3-(5-methyl-2-m-tolyloxazol-4-ylmethoxy)cyclohexyloxy]ethyl}-1H-indole-2-carboxylic acid], for which the EC50 turned out to be 469 nM.
